Measurements from the RepoRT retention time repository (doi:10.1007/s11306-011-0298-z).

test: RP, Waters ACQUITY UPLC HSS T3, 100 × 2.1 mm, 1.8 µm, 30 °C, 0.3 mL/min, estimated dead time 0.73 min; A: water + 0.1% formic acid, pH 3; B: methanol + 0.1% formic acid, pH 3; gradient (min/%B) 0/0 6/0 56/100 60/100; conditions: stereoisomer not certain

LC retention time | SMILES
54 min | CCCCCCCCCCCC=CC=CC=CC=CC=CC(=O)O [Docosapentaenoic acid]
32.6 min | Oc1ccc(C=Cc2cc(O)cc3c2C(c2cc(O)cc4c2C(c2cc(O)cc(O)c2)C(c2ccc(O)cc2)O4)C(c2ccc(O)cc2)O3)cc1 (stereo not drawn) [E-cis-miyabenol C]
20.7 min | Cc1cc2nc3c(=O)[nH]c(=O)nc-3n(CC(O)C(O)C(O)COP(=O)(O)OP(=O)(O)OCC3OC(n4cnc5c(N)ncnc54)C(O)C3O)c2cc1C (configuration not stated) [FAD]
21.9 min | Cc1cc2nc3c(=O)[nH]c(=O)nc-3n(CC(O)C(O)C(O)COP(=O)(O)O)c2cc1C (configuration not stated) [FMN]
45.6 min | CC(CCC(=O)O)C1CCC2C3C(O)C(O)C4CC(O)CCC4(C)C3CCC12C (configuration not stated) [Hyocholic acid]
25.1 min | O=Cc1c[nH]c2ccccc12 [Indole-3-aldehyde]
24.6 min | O=C(O)C(O)Cc1c[nH]c2ccccc12 (configuration not stated) [Indolelactic acid]
1.51 min | O=C(O)[C@H](O)[C@@H](O)C(=O)O [L-(+)-tartaric acid]
1.3 min | NC(=O)CC[C@H](N)C(=O)O [L-Glutamine]
59.9 min | CCCCCCCCC=CCCCCCCCC(=O)OC(COC(=O)CCCCCCCCCCCCCCC)COP(=O)([O-])OCC[N+](C)(C)C [L-a-Phosphatidylcholine]
1.27 min | NC(=O)C[C@H](N)C(=O)O [L-asparagine]
1.28 min | N[C@@H](CC(=O)O)C(=O)O [L-aspartic acid]
1.4 min | NC(=O)NCCC[C@H](N)C(=O)O [L-citrulline]
1.21 min | N[C@@H](CCSC[C@H](N)C(=O)O)C(=O)O [L-cystathionine]
1.23 min | N[C@@H](CS)C(=O)O [L-cysteine]
1.31 min | N[C@@H](CCC(=O)O)C(=O)O [L-glutamic acid]
3.4 min | NC(CCC(=O)NC(CS)C(=O)NCC(=O)O)C(=O)O [L-glutathione]
1.2 min | N[C@@H](Cc1cnc[nH]1)C(=O)O [L-histidine]
1.29 min | N[C@@H](CCO)C(=O)O [L-homoserine]
4.62 min | CC[C@H](C)[C@H](N)C(=O)O [L-isoleucine]
11 min | Nc1ccccc1C(=O)CC(N)C(=O)O [L-kynurenine]
4.98 min | CC(C)C[C@H](N)C(=O)O [L-leucine]
1.18 min | NCCCC[C@H](N)C(=O)O [L-lysine]
2 min | O=C(O)C[C@H](O)C(=O)O [L-malic acid]

LC retention time | SMILES
2.8 min | CSCC[C@H](N)C(=O)O [L-methionine]
2.3 min | CCC[C@H](N)C(=O)O [L-norvaline]
1.1 min | NCCC[C@H](N)C(=O)O [L-ornithine]
11.5 min | N[C@@H](Cc1ccccc1)C(=O)O [L-phenylalanine]
1.59 min | O=C(O)[C@@H]1CCCN1 [L-proline]
1.38 min | N[C@@H](CCCCN[C@@H](CCC(=O)O)C(=O)O)C(=O)O [L-saccharopine]
1.22 min | N[C@@H](CO)C(=O)O [L-serine]
1.3 min | C[C@@H](O)[C@H](N)C(=O)O [L-threonine]
16 min | N[C@@H](Cc1c[nH]c2ccccc12)C(=O)O [L-tryptophan]
6.08 min | N[C@@H](Cc1ccc(O)cc1)C(=O)O [L-tyrosine]
2.19 min | CC(C)[C@H](N)C(=O)O [L-valine]
60.4 min | CCCCCCCCCCCCCCCCCCCCC(=O)OC [Methyl henicosanoate]
28.3 min | CC1OC(Oc2c(-c3cc(O)c(O)c(O)c3)oc3cc(O)cc(O)c3c2=O)C(O)C(O)C1O (configuration not stated) [Myricitrin (myricetin 3-O-rhamnoside)]
1.5 min | CC(=O)NC1C(O)CC(O)(C(=O)O)OC1C(O)C(O)CO (configuration not stated) [N-Acetyl-neuraminic acid]
17.4 min | CC(=O)NC(Cc1ccc(O)cc1)C(=O)O (configuration not stated) [N-acetyl tyrosine]
1.49 min | CC(=O)NC1C(O)OC(CO)C(O)C1O (configuration not stated) [N-acetyl-galactosamine]
2 min | O=C1CCC(=O)N1O [N-hydroxysuccinimide]
1.21 min | N[C@@H](COP(=O)(O)O)C(=O)O [O-phospho-L-serine]
33 min | Oc1ccc(C2Oc3cc(O)cc4c3C2c2cc(O)cc3c2C(c2cc(O)cc5c2C4C(c2ccc(O)cc2)O5)C(c2ccc(O)cc2)O3)cc1 (configuration not stated) [a-viniferin]
31.3 min | CC(C=CC1(O)C(C)=CC(=O)CC1(C)C)=CC(=O)O (configuration not stated) [abscisic acid]
8 min | CC(=O)NC(CS)C(=O)O (configuration not stated) [acetylcysteine]
2.33 min | Nc1ncnc2nc[nH]c12 [adenine*]
10.9 min | Nc1ncnc2c1ncn2C1OC(CO)C(O)C1OP(=O)(O)O (configuration not stated) [adenosine 2'-monophosphate]
